{"source": "paper PMC11406518", "about": "“Intranasal Administration of Bedaquiline-Loaded Fucosylated Liposomes Provides Anti-Tubercular Activity while Reducing the Potential for Systemic Side Effects” (ACS Infectious Diseases, 2024)", "key": {"[1]": {"design": "method as in PMID 35112802", "settings": "TargoSphere platform; cited from earlier work"}, "[2]": {"tested_on": "mycobacteria", "settings": "cited from earlier work"}, "[3]": {"design": "method as in PMID 22155815, PMID 34370588", "settings": "in vitro; cited from earlier work"}, "[4]": {"design": "method as in PMID 22155815", "settings": "oral route; cited from earlier work"}, "[5]": {"tested_on": "Mtb H37Rv in murine bone marrow-derived macrophages", "experiment": "in vitro antitubercular activity in infected murine bone marrow-derived macrophages", "assay_type": "cell-based, Mycobacterium tuberculosis", "settings": "primary BMDM infected with H37Rv; doses 1 and 0.1 μg/mL"}, "[6]": {"tested_on": "mycobacterial ATP synthase", "design": "method as in PMID 20521931", "settings": "selectivity; cited from earlier work"}, "[7]": {"tested_on": "H37Rv strain of Mtb", "design": "method as in PMID 22155815", "settings": "cited from earlier work"}, "[8]": {"settings": "estimated; 25 °C; cited from earlier work"}, "[9]": {"settings": "estimated; cited from earlier work"}, "[10]": {"settings": "cited from earlier work"}, "[11]": {"settings": "coadministration with high-fat meals"}}, "data": [{"smiles": "C[C@H]1COc2c(N3CCN(C)CC3)c(F)cc3c(=O)c(C(=O)O)cn1c23", "note": "[levofloxacin]", "values": [{"measurement": "encapsulation efficiency", "setting": "[1]", "value": "66–80%"}]}, {"smiles": "CNCCC(O)(c1cccc2ccccc12)C(c1ccccc1)c1cc2cc(Br)ccc2nc1OC", "note": "(stereo not drawn) [M2, N-desmethyl-bedaquiline]", "values": [{"measurement": "antimycobacterial activity, fold lower than BDQ", "setting": "[2]", "value": "4–6 fold"}, {"measurement": "cytotoxicity and phospholipidogenesis", "setting": "[3]", "value": "higher cytotoxicity and phospholipidogenesis"}, {"measurement": "AUCLung:AUCplasma ratio", "setting": "[4]", "value": "100–200"}]}, {"smiles": "COc1nc2ccc(Br)cc2cc1[C@@H](c1ccccc1)[C@@](O)(CCN(C)C)c1cccc2ccccc12", "note": "[BDQ, Bedaquiline]", "values": [{"measurement": "reduction in CFU/mL", "setting": "[5]", "value": "significant reductions in CFU/mL"}, {"measurement": "higher affinity for mycobacterial ATP synthase versus eukaryotic ATP synthase", "setting": "[6]", "value": "> 20,000"}, {"measurement": "minimum bactericidal concentration (MBC)", "setting": "[7]", "value": 0.3, "unit": "µg/mL"}, {"measurement": "minimum inhibitory concentration (MIC)", "setting": "[7]", "value": 0.06, "unit": "µg/mL"}, {"measurement": "loading capacity", "setting": "[1]", "value": "5–7 % of the total mass"}, {"measurement": "solubility in aqueous media", "setting": "[8]", "value": 2, "unit": "ng/mL"}, {"measurement": "logP", "setting": "[9]", "value": 7.74}, {"measurement": "bioavailability", "setting": "[10]; administered orally", "value": "high bioavailability"}, {"measurement": "median tmax", "setting": "[10]; administered orally", "value": "~5", "unit": "h"}, {"measurement": "increase of AUC with food", "setting": "[10]; [11]", "value": 2, "unit": "fold"}, {"measurement": "increase of Cmax with food", "setting": "[10]; [11]", "value": 2, "unit": "fold"}, {"measurement": "protein binding", "setting": "[10]; in vivo", "value": "> 99", "unit": "%"}, {"measurement": "terminal elimination half-life", "setting": "[10]; in vivo", "value": "4–5 months"}, {"measurement": "volume of distribution", "setting": "[10]; in vivo", "value": 164, "unit": "L"}]}]}
